Measurements as given in patent US10004761B2, “Malodor neutralizing composition” (priority 2016, dated 2018).

Tested on: chondroitinase ABC
Assay: HA gelation consistency (Method III) in the presence of Chondroitinase ABC
Format: biochemical, Proteus vulgaris
Conditions: Table 4: NAC 400 mg dry powder (20% final), HA 2 cc of 1%, Chondroitinase ABC 50 μL, 37° C.; cell wraps: Viscous liquid
Procedure: Method III (Viscosity of HA): HA at low concentrations (e.g., 1%) in aqueous solution forms a viscous colloidal hydrogel solution, which yields semi-solid gel particles at room temperature and a solid gel at 4° C.
HA degradation was evaluated using Method III, as described hereinabove.
HA state of gelation was studied in the presence of NAC and various HA-degrading enzymes, using the following Stock solutions:
The tested enzyme (50 μL) was placed in a tube, NAC (50 μL of the Stock solution, final concentration of about 3.3%) was added and the mixture was incubated for 2 hours at room temperature (23° C.). Then, 2 ml of HA 1% were added to each tube and tubes were further incubated at room temperature for additional 24 hours.
In a second set of experiments, NAC (50 μL of the Stock solution) was added to a tube containing 2 ml of HA 1%; and the tubes were incubated for 2 hours at room temperature. Then, the HA-degrading enzyme was added and tubes were incubated at room temperature for additional 24 hours. In control tubes 9 and 10 (containing only HA), 50 μL of water were added to achieve the same volume as the other tested tubes.
In another set of experiments, the effect of NAC powder, (at a final concentration of 20%), on HA gelation in the presence of Hyase or Chondroitinase ABC was tested. […]

CC(=O)N[C@@H](CS)C(=O)O [NAC, N-acetyl L-cysteine]
Consistency: Viscous
